Data on 24 compounds can be found in patent publication US10604526B2, “Chemokine receptor modulators and uses thereof” (RAPT THERAPEUTICS, INC., priority 2016, dated 2020).

The pIC50 is the negative decadic logarithm of the IC50, by convention in mol/L.

Molecules are shown by their SMILES. pIC50: −log10 of the molar value.

The test deals with T1, hCCR4 (Homo sapiens, UniProt P51679).
T1 sequence (P51679 1-360): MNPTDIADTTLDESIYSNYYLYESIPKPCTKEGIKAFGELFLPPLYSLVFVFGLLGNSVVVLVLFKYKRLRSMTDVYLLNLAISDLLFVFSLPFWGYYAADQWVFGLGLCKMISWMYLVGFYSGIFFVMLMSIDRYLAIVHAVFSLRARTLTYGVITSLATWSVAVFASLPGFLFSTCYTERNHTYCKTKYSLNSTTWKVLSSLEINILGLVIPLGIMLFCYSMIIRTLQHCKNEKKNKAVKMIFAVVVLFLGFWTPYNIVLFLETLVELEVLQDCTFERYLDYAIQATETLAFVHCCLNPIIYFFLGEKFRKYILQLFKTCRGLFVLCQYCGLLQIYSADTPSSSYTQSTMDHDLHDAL
The experiment in a line: Calcium flux assay. The note with it: Chem5-hCCR4 cells, CCL22 at EC80 of 1.5 nM, FLIPR Calcium 6 dye; read-out: Potency (IC50). It is filed as cell-based. As for the experimental part:
Calcium Flux Assay. Compounds were evaluated in a calcium flux assay substantially performed as follows. Chem5-hCCR4 cells (EMD Millipore, Hayward, Calif.; HTS009C) were cultured under standard conditions and frozen in aliquots of 10×10^6 cells/mL. The day prior to compound testing, a vial was rapidly thawed and pipetted into 20 mL media (DMEM+10% FBS+1% Pen-Strep+1% L-glutamine). Cells were harvested by centrifugation and re-suspended in fresh culture medium. 25 μL of cell suspension was seeded into 384-well plates (Corning, Tewksbury, Mass.; CellBind with black wall/clear bottom). The plates were centrifuged at 300 g for 10 seconds and incubated overnight at 37° C. and 5% CO2. The day of compound testing, media was removed from the plates and 25 μL serum free media was added to each well. Plates were returned to the incubator for 2 h. 25 μL assay buffer (Hank's balanced salt solution+20 mM HEPES pH 7.4) containing FLIPR Calcium 6 dye (Molecular Devices, Sunnyvale, Calif.; # R8191) and probenecid (2.5 mM) was added to each well and incubated at 37° C. and 5% CO2 for 2 h. Compounds in DMSO were added to the plates using an HP D300e digital dispenser, and all wells were normalized to contain 0.25 μL (0.5%) DMSO. Plates were incubated for 1 hour at 37° C. and 5% CO2. CCL22 (Peprotech; Rockyhill, N.J.) was diluted in assay buffer containing 0.1% BSA to 7.5 nM (corresponding to 5×EC80 of 1.5 nM).
Assay plates and working solution of CCL22 were transferred to the FlexStation plate reader (Molecular Devices) at 37° C. for 5 min of equilibration. Fluorescence recordings at 485 excitation/525 emission were performed at 2.5 second intervals. At t=16 seconds, 12.5 μL of CCL22 solution was added to each well and reads continued for 30 seconds at 2.5 second intervals. The minimum fluorescence (Fmin) was calculated by averaging the reads prior to ligand addition and the change in fluorescence (ΔF) was calculated by subtracting the Fmin from the average of the reads following ligand addition. The response ΔF/Fmin was plotted as a function of the compound concentration and the IC50 values were determined by non-linear regression analysis using a 4-parameter fit in either PRISM software (GraphPad; La Jolla, Calif.) or Dotmatics Browser.
Background: Calcium flux is commonly read through the fluorescence of an indicator in the cells.
`C[C@H](c1ccc(Cl)cc1Cl)n1nc(C#N)c2ncc(N3CC(C4CCCN(Cc5c[nH]cn5)C4)C3)nc21` (mixture of isomers) [Example 60, 6-(3-((S)-1-(1H-imidazol-4-yl)methyl)piperidin-3-yl)azetidin-1-yl)-1-((R)-1-(2,4-dichlorophenyl)ethyl)-1H-pyrazolo[3,4-b]pyrazine-3-carbonitrile and 6-(3-((R)-1-((1H-imidazol-4-yl)methyl)piperidin-3-yl)azetidin-1-yl)-1-((R)-1-(2,4-dichlorophenyl)ethyl)-1H-pyrazolo[3,4-b]pyrazine-3-carbonitrile]: the pIC50 was more than 7.00.

`C[C@H](c1ccc(Cl)cc1Cl)n1nc(C#N)c2ncc(N3CC(C4CCCN(C5CCS(=O)(=O)CC5)C4)C3)nc21` (mixture of isomers) [Example 61, 1-((R)-1-(2,4-dichlorophenyl)ethyl)-6-(3-((R)-1-(1,1-dioxidotetrahydro-2H-thiopyran-4-yl)piperidin-3-yl)azetidin-1-yl)-1H-pyrazolo[3,4-b]pyrazine-3-carbonitrile and 1-((R)-1-(2,4-dichlorophenyl)ethyl)-6-(3-((S)-1-(1,1-dioxidotetrahydro-2H-thiopyran-4-yl)piperidin-3-yl)azetidin-1-yl)-1H-pyrazolo[3,4-b]pyrazine-3-carbonitrile]: the negative-log IC50 (pIC50) was more than 7.00.

Take `C[C@H](c1ccc(Cl)cc1Cl)n1nc(C#N)c2ncc(N3CC(C4CCCN(C5CCOCC5)C4)C3)nc21` (mixture of isomers) [Example 62, 1-((R)-1-(2,4-dichlorophenyl)ethyl)-6-(3-((R)-1-(tetrahydro-2H-pyran-4-yl)piperidin-3-yl)azetidin-1-yl)-1H-pyrazolo[3,4-b]pyrazine-3-carbonitrile and 1-((R)-1-(2,4-dichlorophenyl)ethyl)-6-(3-((S)-1-(tetrahydro-2H-pyran-4-yl)piperidin-3-yl)azetidin-1-yl)-1H-pyrazolo[3,4-b]pyrazine-3-carbonitrile]: the negative logarithm of the IC50 (pIC50) was more than 7.00.

In the case of `CC(=O)NCCN1CCCC(C2CN(c3cnc4c(C)nn([C@H](C)c5ccc(Cl)cc5Cl)c4n3)C2)C1` (mixture of isomers) [Example 63, N-(2-((R)-3-(1-(1-((R)-1-(2,4-dichlorophenyl)ethyl)-3-methyl-1H-pyrazolo[3,4-b]pyrazin-6-yl)azetidin-3-yl)piperidin-1-yl)ethyl)acetamide and N-(2-((S)-3-(1-(1-((R)-1-(2,4-dichlorophenyl)ethyl)-3-methyl-1H-pyrazolo[3,4-b]pyrazin-6-yl)azetidin-3-yl)piperidin-1-yl)ethyl)acetamide], the pIC50 is more than 7.00.

With `Cc1nn([C@H](C)c2ccc(Cl)cc2Cl)c2nc(N3CC(C4CCCN(CCNS(C)(=O)=O)C4)C3)cnc12` (mixture of isomers) [Example 64, N-[2-[(R)-3-[1-[1-[(1R)-1-(2,4-dichlorophenyl)ethyl]-3-methyl-pyrazolo[3,4-b]pyrazin-6-yl]azetidin-3-yl]-1-piperidyl]ethyl]methanesulfonamide and N-[2-[(S)-3-[1-[1-[(1R)-1-(2,4-dichlorophenyl)ethyl]-3-methyl-pyrazolo[3,4-b]pyrazin-6-yl]azetidin-3-yl]-1-piperidyl]ethyl]methanesulfonamide], the pIC50 was more than 7.00.

Turning to `Cc1nn([C@H](C)c2ccc(Cl)cc2Cl)c2nc(N3CC(C4CCCN(CCNS(=O)(=O)C(C)C)C4)C3)cnc12` (mixture of isomers) [Example 65, N-(2-((R)-3-(1-(1-((R)-1-(2,4-dichlorophenyl)ethyl)-3-methyl-1H-pyrazolo[3,4-b]pyrazin-6-yl)azetidin-3-yl)piperidin-1-yl)ethyl)propane-2-sulfonamide and N-(2-((S)-3-(1-(1-((R)-1-(2,4-dichlorophenyl)ethyl)-3-methyl-1H-pyrazolo[3,4-b]pyrazin-6-yl)azetidin-3-yl)piperidin-1-yl)ethyl)propane-2-sulfonamide], the negative-log IC50 (pIC50) is more than 7.00.

In the case of `COC(=O)NCCN1CCCC(C2CN(c3cnc4c(C)nn([C@H](C)c5ccc(Cl)cc5Cl)c4n3)C2)C1` (mixture of isomers) [Example 67, Methyl (2-((R)-3-(1-(1-((R)-1-(2,4-dichlorophenyl)ethyl)-3-methyl-1H-pyrazolo[3,4-b]pyrazin-6-yl)azetidin-3-yl)piperidin-1-yl)ethyl)carbamate and methyl (2-((S)-3-(1-(1-((R)-1-(2,4-dichlorophenyl)ethyl)-3-methyl-1H-pyrazolo[3,4-b]pyrazin-6-yl)azetidin-3-yl)piperidin-1-yl)ethyl)carbamate], the pIC50 was more than 7.00.

In the case of `Cc1nn([C@H](C)c2ccc(Cl)cc2Cl)c2nc(N3CC([C@@H]4CCCN(CC(=O)O)C4)C3)cnc12` (single isomer, unassigned) [Example 2], the pIC50 is less than 6.30.

Turning to `Cc1nn([C@H](C)c2ccc(Cl)cc2Cl)c2nc(N3CC([C@H]4CCCN(CC(=O)O)C4)C3)cnc12` (single isomer, unassigned) [Example 3], the pIC50 is less than 6.30.

In the case of `Cc1nn([C@H](C)c2ccc(Cl)cc2Cl)c2nc(N3CC([C@@H]4CCCN(CCS(N)(=O)=O)C4)C3)cnc12` (single isomer, unassigned) [Example 5], the pIC50 was less than 6.30.

Consider `Cc1nn([C@H](C)c2ccc(Cl)cc2Cl)c2nc(N3CC([C@H]4CCCN(CCS(N)(=O)=O)C4)C3)cnc12` (single isomer, unassigned) [Example 6], for which the negative-log IC50 (pIC50) is more than 7.00.

`Cc1nn([C@H](C)c2ccc(Cl)cc2Cl)c2nc(N3CC([C@H]4CCCN(CCC(=O)O)C4)C3)cnc12` (single isomer, unassigned) [Example 8]: the pIC50 is more than 7.00.

For the compound `Cc1nn([C@H](C)c2ccc(Cl)cc2Cl)c2nc(N3CC([C@@H]4CCCN(CCC(=O)O)C4)C3)cnc12` (single isomer, unassigned) [Example 9], the negative-log IC50 (pIC50) was less than 6.30.

`Cc1nn([C@H](C)c2ccc(Cl)cc2Cl)c2nc(N3CC([C@H]4CCCN(CCCC(=O)O)C4)C3)cnc12` (single isomer, unassigned) [Example 10]: the pIC50 was more than 7.00.

As for `Cc1nn([C@H](C)c2ccc(Cl)cc2Cl)c2nc(N3CC([C@@H]4CCCN(CCCC(=O)O)C4)C3)cnc12` (single isomer, unassigned) [Example 11], the negative logarithm of the IC50 (pIC50) is 6.30 to 7.00.

On to `Cc1nn([C@H](C)c2ccc(Cl)cc2Cl)c2nc(N3CC([C@@H]4CCCN(CCC(N)=O)C4)C3)cnc12` (single isomer, unassigned) [Example 12], for which the negative-log IC50 (pIC50) was 6.30 to 7.00.

Turning to `Cc1nn([C@H](C)c2ccc(Cl)cc2Cl)c2nc(N3CC([C@H]4CCCN(CCC(N)=O)C4)C3)cnc12` (single isomer, unassigned) [Example 13], the pIC50 was more than 7.00.

As for `Cc1nn([C@H](C)c2ccc(Cl)cc2Cl)c2nc(N3CC([C@H]4CCCN(CCCO)C4)C3)cnc12` (single isomer, unassigned) [Example 14], the negative-log IC50 (pIC50) is more than 7.00.

For the compound `Cc1nn([C@H](C)c2ccc(Cl)cc2Cl)c2nc(N3CC([C@@H]4CCCN(CCCO)C4)C3)cnc12` (single isomer, unassigned) [Example 15], the pIC50 is 6.30 to 7.00.

For `C[C@H](c1ccc(Cl)cc1Cl)n1nc(C#N)c2ncc(N3CC([C@H]4CCCN(CCCC(=O)O)C4)C3)nc21` (single isomer, unassigned) [Example 18], the pIC50 is more than 7.00.

With `C[C@H](c1ccc(Cl)cc1Cl)n1nc(C#N)c2ncc(N3CC([C@@H]4CCCN(CCCC(=O)O)C4)C3)nc21` (single isomer, unassigned) [Example 19], the negative logarithm of the IC50 (pIC50) is more than 7.00.

Regarding `C[C@H](c1ccc(Cl)cc1Cl)n1nc(C#N)c2ncc(N3CC([C@@H]4CCCN(CCC(N)=O)C4)C3)nc21` (single isomer, unassigned) [Example 25], the negative-log IC50 (pIC50) was more than 7.00.

For the compound `C[C@H](c1ccc(Cl)cc1Cl)n1nc(C#N)c2ncc(N3CC([C@H]4CCCN(CCC(N)=O)C4)C3)nc21` (single isomer, unassigned) [Example 26], the negative-log IC50 (pIC50) is more than 7.00.

On to `CC(O)CN1CCC[C@H](C2CN(c3cnc4c(C#N)nn([C@H](C)c5ccc(Cl)cc5Cl)c4n3)C2)C1` (single isomer, unassigned) [Example 28], for which the negative logarithm of the IC50 (pIC50) was more than 7.00.
